Measured values from patent US20240033238A1, “COMBINATION OF COMPOUNDS FOR USE IN THERAPY” (B&A ONCOMEDICAL, priority 2022, published 2024).

How the values were obtained:
[1] = tested on: glioblastoma; details: rodent glioblastoma models; shifted from 20 days; cited from earlier work
[2] = tested on: K^+ influx in HEK293 cells; assay: K+ influx in HEK293 cells (FIG. 1A); type: cell-based, human; details: ouabain 100 uM
[3] = target: T1, NKCC1 (Homo sapiens, UniProt P55011); assay: dose response on NKCC1-mediated K+ influx (FIG. 1B); type: cell-based; details: HEK293 cells, dose response curves
T1 construct: endogenous in cells; host or cells: HEK293
T1 sequence (P55011 1-1212): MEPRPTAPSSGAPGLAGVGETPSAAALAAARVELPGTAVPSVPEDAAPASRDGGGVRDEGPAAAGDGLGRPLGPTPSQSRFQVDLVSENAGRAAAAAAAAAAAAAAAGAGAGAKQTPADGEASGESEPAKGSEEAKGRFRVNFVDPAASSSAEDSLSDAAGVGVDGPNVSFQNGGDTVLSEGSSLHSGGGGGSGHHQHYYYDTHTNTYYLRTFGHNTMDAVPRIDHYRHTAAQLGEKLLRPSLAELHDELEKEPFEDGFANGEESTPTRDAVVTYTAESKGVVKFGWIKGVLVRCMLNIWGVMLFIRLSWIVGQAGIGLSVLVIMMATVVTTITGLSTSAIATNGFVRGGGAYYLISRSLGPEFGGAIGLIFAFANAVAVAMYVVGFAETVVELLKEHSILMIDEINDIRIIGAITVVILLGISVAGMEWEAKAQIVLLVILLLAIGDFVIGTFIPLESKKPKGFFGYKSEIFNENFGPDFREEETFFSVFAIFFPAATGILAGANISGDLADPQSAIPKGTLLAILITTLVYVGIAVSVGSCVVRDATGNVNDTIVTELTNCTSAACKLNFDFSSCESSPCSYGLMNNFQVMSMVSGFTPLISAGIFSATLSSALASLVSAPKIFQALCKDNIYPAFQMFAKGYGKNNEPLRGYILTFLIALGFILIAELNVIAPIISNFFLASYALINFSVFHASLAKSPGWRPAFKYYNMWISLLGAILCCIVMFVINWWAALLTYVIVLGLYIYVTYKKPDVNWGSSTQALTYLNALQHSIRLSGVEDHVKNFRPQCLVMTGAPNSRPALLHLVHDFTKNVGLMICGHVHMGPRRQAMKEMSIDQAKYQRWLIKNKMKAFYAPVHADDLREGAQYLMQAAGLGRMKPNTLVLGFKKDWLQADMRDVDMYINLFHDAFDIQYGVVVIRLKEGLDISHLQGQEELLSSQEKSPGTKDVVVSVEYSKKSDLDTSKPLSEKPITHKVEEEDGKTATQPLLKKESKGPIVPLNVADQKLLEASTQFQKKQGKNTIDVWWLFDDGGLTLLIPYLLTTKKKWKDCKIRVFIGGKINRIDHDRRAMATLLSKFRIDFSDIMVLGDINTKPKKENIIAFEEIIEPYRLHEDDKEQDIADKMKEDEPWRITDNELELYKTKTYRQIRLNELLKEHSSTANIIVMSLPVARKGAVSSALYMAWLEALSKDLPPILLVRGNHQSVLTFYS

[4] = tested on: U87 cell lines; assay: cytotoxicity in GFP transfected U87 cells (cell number); type: cell-based, human; details: for reduction of number of cells: U87, 0.1 μm; for reduction of cell number / cytotoxic effect (in words): U87, 10 μm; for cytotoxic effect (in words): bumetanide at day 3 and day 5
Method: The HEK cell line is a specific immortalised cell line widely used in cell biology and biotechnology research and the U87 cell line is a human glioblastoma cell line that is commonly used in brain cancer research.
The effects of bumetanide alone or in combination with mebendazole were investigated in U87 cell lines at 0.1, 1, and 10 μm. Each experiment was performed in triplicate (n=3). Cells were GFP transfected (green). Cytotoxicity is manifested by loss of GFP and presence of small round flat cells loosing GFP expression indicative of cell death (apoptosis).

[5] = tested on: U87 cells; assay: scratch test (invasion of tumour cells); type: cell-based, human; details: U87, 0.1 μm; for reduction of invasion: day 5, compared to controls not treated; for anti-invasive action (persistence of a trench): day 8
Excerpt: To further investigate invasion of tumour cells, we performed a scratch test. This test enables to visualize the propagation and metastasis of tumour cells determined by their capacity to cross the trench. Therefore, U87 cells are cultivated and a scratch is made with a blade in order to estimate the strength and rapidity of invasion.

[6] = tested on: U87 cells; assay: immunochemistry (Dapi, iodure propidium, Actin/GFP) viability of cells; type: cell-based, human; details: U87, 1 μm; control: 3%
Excerpt: The labels used are Dapi (blue) iodure propidium (red) and Actin immunocytochemistry with GFP (green) in order to visualize the viability and non-viability of cells.
To better illustrate the effects of bumetanide and mebendazole, we used Dapi (blue) iodure propidium (red) and Actin immunocytochemistry with GFP (green) in order to visualize the viability and non-viability of cells.

| Compound | mean survival [1] | inhibition of K+ influx [2] | EC50 [3] | reduction of number of cells ([4]; day 3) | reduction of number of cells ([4]; day 5) | reduction of cell number ([4]; day 8) | cytotoxic effect (in words) [4] | reduction of invasion [5] | anti-invasive action (persistence of a trench) [5] | dead cells / reduction of cell density [6] | EC50 on NKCC1-mediated K+ influx [3] | reduction of number of cells ([4]; day 8) | reduction of cell number ([4]; day 1) | reduction of cell number ([4]; day 5) | inhibition at 100 µM ([2]; Homo sapiens) |
| --- | --- | --- | --- | --- | --- | --- | --- | --- | --- | --- | --- | --- | --- | --- | --- |
| CCCSc1ccc2nc(NC(=O)OC)[nH]c2c1 [ABZ, albendazole] | 36 days |  |  |  |  |  |  |  |  |  |  |  |  |  |  |
| CCCCNc1cc(C(=O)O)cc(S(N)(=O)=O)c1Oc1ccccc1 [bumetanide] |  | 49% | 0.312 µM | not | not | 18% | strong cytotoxic action | 40% | neither applications of mebendazole or bumetanide separately produced an anti-invasive action | 3,2% |  |  |  |  |  |
| COC(=O)Nc1nc2ccc(C(=O)c3ccccc3)cc2[nH]1 [mebendazole, methyl N-[6-(benzoyl)-1H-benzimidazol-2-yl] carbamate] | 49 days | ineffective |  | 43% | 90% | 64% | very strong cytotoxic effect | 15% | neither applications of mebendazole or bumetanide separately produced an anti-invasive action | 50% | inefficacy | 70% | 55% | 89% |  |
| C[C@@H]1O[C@@H](O[C@H]2C[C@@H](O)[C@]3(CO)[C@H]4[C@H](O)C[C@]5(C)[C@@H](C6=CC(=O)OC6)CC[C@]5(O)[C@@H]4CC[C@]3(O)C2)[C@H](O)[C@H](O)[C@H]1O [ouabain] |  |  |  |  |  |  |  |  |  |  |  |  |  |  | 44% |
